Experimental data taken from ChEMBL document CHEMBL6096670, “Design, synthesis and biological evaluation of novel β-carbolines as antitumor agents via targeting autophagy in colorectal cancer” (Eur J Med Chem, 2025).

Columns and labels:
[1] = test system: HCT-116; assay: Induction of apoptosis in human HCT-116 assessed as viable cells at 100 uM pretreated with Z-VAD-FMK for 30 mins followed by compound addition and measured after 24 hrs by Annexin V-FITC/PI double staining based flow cytometry (reference value: 90.8%); assay type: functional; settings: read-out: Activity
[2] = test system: HCT-116; assay: Induction of apoptosis in human HCT-116 assessed as viable cells at 100 uM incubated for 24 hrs Annexin V FITC/PI double staining based flow cytometry (Rvb =90.0%); assay type: functional; settings: read-out: Activity
[3] = test system: HCT-116; assay: Induction of apoptosis in human HCT-116 assessed as necrotic cells at 100 uM incubated for 24 hrs Annexin V FITC/PI double staining based flow cytometry (reference value: 0.94 %); assay type: functional
[4] = test system: HCT-116; assay: Induction of apoptosis in human HCT-116 assessed as early apoptotic cells at 100 uM pretreated with Z-VAD-FMK for 30 mins followed by compound addition and measured after 24 hrs by Annexin V-FITC/PI double staining based flow cytometry (reference value: […]); assay type: functional
[5] = test system: HCT-116; assay: Induction of apoptosis in human HCT-116 assessed as necrotic cells at 100 uM pretreated with Z-VAD-FMK for 30 mins followed by compound addition and measured after 24 hrs by Annexin V-FITC/PI double staining based flow cytometry (reference value: 0.84 %); assay type: functional
[6] = test system: HCT-116; assay: Induction of apoptosis in human HCT-116 assessed as late apoptotic cells at 100 uM pretreated with Z-VAD-FMK for 30 mins followed by compound addition and measured after 24 hrs by Annexin V-FITC/PI double staining based flow cytometry (reference value: 7.43 %); assay type: functional
[7] = test system: HCT-116; assay: Induction of apoptosis in human HCT-116 assessed as late apoptotic cells at 100 uM incubated for 24 hrs Annexin V FITC/PI double staining based flow cytometry (reference value: 8.02 %); assay type: functional
[8] = test system: HCT-116; assay: Induction of apoptosis in human HCT-116 assessed as early apoptotic cells at 100 uM incubated for 24 hrs Annexin V FITC/PI double staining based flow cytometry (reference value: 1.07 %); assay type: functional
[9] = test system: SK-OV-3; assay: Antiproliferative activity against human SK-OV-3 cells assessed as inhibition of cell growth incubated for 48 hrs by MTT assay; assay type: functional, cell-based; settings: SK-OV-3, 48 h
[10] = test system: HepG2; assay: Antiproliferative activity against human HepG2 cells assessed as inhibition of cell growth incubated for 48 hrs by MTT assay; assay type: functional, cell-based; settings: HepG2, 48 h
[11] = test system: A-375; assay: Antiproliferative activity against human A-375 cells assessed as inhibition of cell growth incubated for 48 hrs by MTT assay; assay type: functional, cell-based; settings: A-375, 48 h
[12] = test system: 786-0; assay: Antiproliferative activity against human 786-0 cells assessed as inhibition of cell growth incubated for 48 hrs by MTT assay; assay type: functional, cell-based; settings: 786-0, 48 h
[13] = test system: CWR22R; assay: Antiproliferative activity against human 22Rv1 cells assessed as inhibition of cell growth incubated for 48 hrs by MTT assay; assay type: functional, cell-based; settings: 22Rv1, 48 h
[14] = test system: MCF7; assay: Antiproliferative activity against human MCF7 cells assessed as inhibition of cell growth incubated for 48 hrs by MTT assay; assay type: functional, cell-based; settings: MCF7, 48 h
[15] = test system: HT-29; assay: Antiproliferative activity against human HT-29 cells assessed as inhibition of cell growth incubated for 48 hrs by MTT assay; assay type: functional, cell-based; settings: HT-29, 48 h
[16] = test system: BGC-823; assay: Antiproliferative activity against human BGC-823 cells assessed as inhibition of cell growth incubated for 48 hrs by MTT assay; assay type: functional, cell-based; settings: BGC-823, 48 h

`O=c1[nH]cc(F)c(=O)[nH]1` [FLUOROURACIL] gave a viability at 100 µM [1] of 75.5%, a viability at 100 µM [2] of 43.6% and an Activity [3] of 1.62%. For the same compound, the Activity [4] was 3.01%, the Activity [5] was 4.13% and the Activity [6] was 17.3%. For the same compound, the Activity [7] was 15.2% and the Activity [8] was 39.6%.

In the case of `CCN(CC)CCCNCc1cc2c3ccccc3n(C)c2c(CNCCCN(CC)CC)n1`, the IC50 [9] is reported as greater than 20 µM, the IC50 [10] is reported as greater than 20 µM and the IC50 [11] is reported as greater than 20 µM. The IC50 [12] was 14.2 µM, the IC50 [13] was 12.6 µM and the IC50 [14] was greater than 20 µM. The IC50 [15] was 8.62 µM and the IC50 [16] was 16.8 µM.

For `CCN(CC)CCCNCc1cc2c3ccccc3n(Cc3ccc(F)cc3)c2c(CNCCCN(CC)CC)n1`, the IC50 [9] was 7.85 µM, the IC50 [10] was 5.68 µM and the IC50 [11] was 4.82 µM. For the same compound, the IC50 [12] was 5.42 µM, the IC50 [13] was 9.22 µM and the IC50 [14] was 6.92 µM. For the same compound, the IC50 [15] was 5.81 µM and the IC50 [16] was 8.81 µM.

With `CCN(CC)CCCNCc1cc2c3ccccc3n(Cc3ccccc3)c2c(CNCCCN(CC)CC)n1` the IC50 [9] was 9.62 µM, the IC50 [10] was 14.3 µM and the IC50 [11] was 7.83 µM. It also gave an IC50 [12] of 10.6 µM, an IC50 [13] of 11.2 µM and an IC50 [14] of 15.2 µM. For the same compound, the IC50 [15] was 5.54 µM and the IC50 [16] was 7.24 µM.

In the case of `CCN(CC)CCCNCc1cc2c([nH]c3ccccc32)c(CNCCCN(CC)CC)n1`, the IC50 [9] is reported as greater than 20 µM, the IC50 [10] is reported as greater than 20 µM and the IC50 [11] is reported as greater than 20 µM. The IC50 [12] was 14.9 µM, the IC50 [13] was 16.1 µM and the IC50 [14] was greater than 20 µM. The IC50 [15] was 12.7 µM and the IC50 [16] was greater than 20 µM.

Compound `CCCCn1c2ccccc2c2cc(CNCCCN(CC)CC)nc(CNCCCN(CC)CC)c21` has an IC50 [9] of 15.8 µM, an IC50 [10] of 15.6 µM and an IC50 [11] of 15.8 µM. For the same compound, the IC50 [12] was 9.32 µM, the IC50 [13] was 8.24 µM and the IC50 [14] was 10.5 µM. For the same compound, the IC50 [15] was 8.03 µM and the IC50 [16] was 11.2 µM.
